PubChem BioAssay AID1082 (University of Pittsburgh Molecular Library Screening Center, 2008)
Where “and” joins values, the source holds several entries; their conditions need not be identical. Identical values can stand only once. Calls of active or inactive are those of the source. The rule behind the calls is not given here.

What follows are molecules tested against Serine/threonine-protein kinase PLK1 (Homo sapiens) (UniProt P53350) (assay: Plk1 PBD phosphopeptide interaction blockers – biochemical, fluorescence polarization, synthesized analogs, IC50, SAR follow-up (AID 1082)). Details: PLK1 PBD phosphopeptide binding.
Serine/threonine-protein kinase PLK1 (Homo sapiens), sequence (P53350 whole entry, looked up): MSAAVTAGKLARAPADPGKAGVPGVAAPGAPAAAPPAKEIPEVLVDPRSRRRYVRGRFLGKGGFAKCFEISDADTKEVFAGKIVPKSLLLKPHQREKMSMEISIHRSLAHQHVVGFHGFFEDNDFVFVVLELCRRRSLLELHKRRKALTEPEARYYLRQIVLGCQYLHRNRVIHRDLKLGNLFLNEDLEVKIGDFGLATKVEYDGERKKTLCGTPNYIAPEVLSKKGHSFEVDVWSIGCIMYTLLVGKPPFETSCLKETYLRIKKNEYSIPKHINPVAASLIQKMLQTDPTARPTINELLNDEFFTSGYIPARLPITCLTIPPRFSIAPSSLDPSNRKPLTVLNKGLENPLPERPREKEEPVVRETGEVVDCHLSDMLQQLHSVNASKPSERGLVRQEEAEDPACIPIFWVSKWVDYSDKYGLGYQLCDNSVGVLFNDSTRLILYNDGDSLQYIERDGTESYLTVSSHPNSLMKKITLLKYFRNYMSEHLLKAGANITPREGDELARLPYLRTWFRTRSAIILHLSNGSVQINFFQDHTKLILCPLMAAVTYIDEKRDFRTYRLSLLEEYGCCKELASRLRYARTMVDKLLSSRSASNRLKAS
`CCCCOC(=O)c1ccc(NC(=O)c2c(O)[nH]c(=O)[nH]c2=O)cc1` was tested, and the IC50 was > 50 µM (inactive).
For `Cn1c2c(c(=O)n(C)c1=O)C(c1ccc(C(F)(F)F)cc1)CC(=O)N2` (stereo not given), the IC50 was > 50 µM (inactive).
With `O=c1[nH]c(NC2CCCCC2)c([N+](=O)[O-])c(=O)[nH]1` the IC50 was > 50 µM (inactive).
With `Cn1c(N)c(C(=O)Nc2ccccc2)c(=O)[nH]c1=O` the IC50 was > 50 µM (inactive).
In the case of `CC(C)c1ccc(NC(=O)COC(=O)c2c[nH]c(=O)[nH]c2=O)cc1`, the IC50 is reported as > 50 µM (inactive).
`Cc1ccc(NC(=O)c2c[nH]c(=O)[nH]c2=O)cc1` was tested, and the IC50 was > 50 µM (inactive).
In the case of `CCOC(=O)c1ccc(NC(=O)c2c(N)n(C)c(=O)n(C)c2=O)cc1`, the IC50 is reported as > 50 µM (inactive).
With `Cn1cc(C(=O)CNc2ccccc2)c(=O)n(C)c1=O` the IC50 was > 50 µM (inactive).
For `CCOC(=O)c1ccc(NC(=O)c2c(NCc3ccccc3)[nH]c(=O)[nH]c2=O)cc1`, the IC50 was > 50 µM (inactive).
`CCOC(=O)c1ccccc1NC(=O)c1c(N)n(C)c(=O)[nH]c1=O` was tested, and the IC50 was > 50 µM (inactive).
`O=C(Nc1ccccc1)c1c(O)[nH]c(=S)[nH]c1=O` was tested, and the IC50 was > 50 µM (inactive).
With `CCOC(=O)c1ccccc1NC(=O)c1c(O)[nH]c(=O)[nH]c1=O` the IC50 was > 50 µM (inactive).
With `CCOC(=O)c1cccc(NC(=O)c2c(N)n(C)c(=O)[nH]c2=O)c1` the IC50 was > 50 µM (inactive).
In the case of `CCOC(=O)c1ccc(NC(=O)c2c(N)n(C)c(=O)[nH]c2=O)cc1`, the IC50 is reported as > 50 µM (inactive).
For `CCOC(=O)c1ccc(NC(=O)c2c(O)[nH]c(=O)[nH]c2=O)cc1`, the IC50 was > 50 µM (inactive) and 2.89 µM.
`CCOC(=O)c1ccc(NS(=O)(=O)c2c(N)n(C)c(=O)n(C)c2=O)cc1` was tested, and the IC50 was > 50 µM (inactive).
For `CCOC(=O)c1cccc(NC(=O)c2c(O)[nH]c(=O)[nH]c2=O)c1`, the IC50 was > 50 µM (inactive).
With `O=C(N/N=C/c1c(O)[nH]c(=O)[nH]c1=O)c1ccncc1` the IC50 was > 50 µM (inactive).
With `CCOC(=O)c1ccc(NC(=O)c2c(N)n(Cc3ccccc3)c(=O)[nH]c2=O)cc1` the IC50 was > 50 µM (inactive).
For `CCOc1ccc(NC(=O)c2c(O)[nH]c(=O)[nH]c2=O)cc1`, the IC50 was > 50 µM (inactive).
With `COc1ccc(/C=C/C(=O)c2c(O)n(CCC3=CCCCC3)c(=O)[nH]c2=O)cc1` the IC50 was > 50 µM (inactive).
`COC(=O)c1ccccc1NC(=O)c1c(O)c2c([nH]c1=O)CCCC2` was tested, and the IC50 was > 50 µM (inactive).
`O=C(Nc1ccccc1)c1c(O)[nH]c(=O)[nH]c1=O` was tested, and the IC50 was > 50 µM (inactive).
For `Cc1ccc(N=Cc2c(O)n(-c3ccc(C)cc3)c(=O)[nH]c2=O)cc1`, the IC50 was > 50 µM (inactive).
For `CCCCOC(=O)c1ccc(NC(=O)c2c(N)n(C)c(=O)[nH]c2=O)cc1`, the IC50 was > 50 µM (inactive).
For `Cn1c(N)c(S(=O)(=O)Nc2ccccc2)c(=O)n(C)c1=O`, the IC50 was > 50 µM (inactive).
In the case of `CCOC(=O)c1cccc(NC(=O)c2c(NCc3ccccc3)[nH]c(=O)[nH]c2=O)c1`, the IC50 is reported as > 50 µM (inactive).
With `O=c1[nH]c(=S)[nH]c(O)c1/C=N/Nc1ccccc1` the IC50 was > 50 µM (inactive).
In the case of `CCOc1ccc(NC(=O)c2c(N)n(C)c(=O)[nH]c2=O)cc1`, the IC50 is reported as > 50 µM (inactive).
With `CCCOc1ccc(C(=O)Nc2c[nH]c(=O)[nH]c2=O)cc1` the IC50 was > 50 µM (inactive).
For `CCOC(=O)c1ccccc1NC(=O)c1c(O)[nH]c(=S)[nH]c1=O`, the IC50 was > 50 µM (inactive).
With `CCOC(=O)c1ccc(NS(=O)(=O)c2c(N)[nH]c(=O)[nH]c2=O)cc1` the IC50 was > 50 µM (inactive).
In the case of `CCC(=O)Oc1ccc(C(=O)Nc2c[nH]c(=O)[nH]c2=O)cc1`, the IC50 is reported as > 50 µM (inactive).
In the case of `CCOC(=O)CCCCCNC(=O)c1c(N)n(C)c(=O)n(C)c1=O`, the IC50 is reported as > 50 µM (inactive).
`CC1(C)CC(=O)C(C2(O)C(=O)NC(=O)NC2=O)=C(O)C1` was tested, and the IC50 was > 50 µM (inactive).
